Measurements: US9751887B2, “Imidazo[1,2-b]pyridazine derivatives as kinase inhibitors” (Daiichi Sankyo Company, Limited, priority 2012, dated 2017)
Where a name gives a salt, the structure may show the parent alone. Read-outs that look alike come from different tables or passages of the source.

What was measured:
ROS1 [1] = biological target: T1, ROS1 (Homo sapiens, UniProt P08922); experiment: ROS1 kinase inhibitory activity evaluation (mobility shift, EZ Reader II); format: biochemical; conditions: ROS1 25 pg/μL, FL-Peptide 22 substrate, three separate measurements
T1 construct: purchased Carna Biosciences 08-163
Method: Next, a substrate reaction solution was prepared. […] Then, the reaction stop solution was added thereto at a concentration of 40 μL/well. Substrate phosphorylation intensity was measured using EZ Reader II (Caliper Life Sciences).

ROS1 [2] = biological target: T1, ROS1; experiment: ROS1 autophosphorylation inhibitory activity evaluation (ADP-Glo); format: biochemical; conditions: 200 nM inactive ROS1, ATP 1 mM, 25° C. 1.5 hours, ADP generated, four separate measurements
Method: Fifty mM HEPES (pH 7.5), 10 mM MgCl2, 0.01% Brij-58, and 2.5 mM DTT were mixed to prepare an enzymatic reaction solution. […] ATP (final concentration: 1 mM) was further added thereto at a concentration of 2.5 μL/well. The resulting plate was left standing at 25° C. for 1.5 hours to cause enzymatic reaction. After the completion of enzymatic reaction, ADP-Glo Reagent-1 (Promega, V9103) was added thereto at a concentration of 2.5 μL/well, and the plate was left standing at room temperature for 60 minutes. Then, ADP-Glo Reagent-2 (Promega) was added thereto at a concentration of 5 μL/well, and the plate was left standing at room temperature for 60 minutes. The amount of ADP generated by the autophosphorylation of ROS1 was measured using EnVision (PerkinElmer Japan). The amount of ADP generated in four separate measurements was defined as the autophosphorylation intensity of ROS1. IC50 values were calculated by curve fitting using GraphPad Prism version 4 (GraphPad software).

[3] = tested on: HCC78 cells having ROS1 fusion gene; experiment: HCC78 cell growth assay (CellTiter-Glo); format: cell-based; conditions: Homo sapiens, 72 hours culture, 2% FBS medium, luminescence, four separate measurements, read-out: growth inhibitory effect on HCC78 cells having ROS1 fusion gene IC50
Method: Each compound of the present invention was assayed for its cell growth inhibitory effect using HCC78 cells having ROS1 fusion gene.
The suspension was dispensed at a concentration of 100 μL/well to a 96-well culture plate for cell culture (SUMITOMO BAKELITE, Cat No MS-0096S) (hereinafter, referred to as an assay plate). […] In this context, the final concentration of DMSO was set to 0.4%. Then, the cells were cultured for 72 hours in a CO2 incubator.
CellTiter-Glo Luminescent Cell Viability Assay reagent (Promega, Cat No G7571) was dispensed at a concentration of 100 μL/well to the assay plate. The contents in each well were reacted at room temperature for 10 minutes while stirred using a plate mixer. […] The luminescence intensity of each well was measured using EnVision. The luminescence intensity of each well obtained in four separate measurements was defined as the number of cells. IC50 values were calculated by curve fitting using GraphPad Prism version 4.

T1 sequence (P08922 28-2347): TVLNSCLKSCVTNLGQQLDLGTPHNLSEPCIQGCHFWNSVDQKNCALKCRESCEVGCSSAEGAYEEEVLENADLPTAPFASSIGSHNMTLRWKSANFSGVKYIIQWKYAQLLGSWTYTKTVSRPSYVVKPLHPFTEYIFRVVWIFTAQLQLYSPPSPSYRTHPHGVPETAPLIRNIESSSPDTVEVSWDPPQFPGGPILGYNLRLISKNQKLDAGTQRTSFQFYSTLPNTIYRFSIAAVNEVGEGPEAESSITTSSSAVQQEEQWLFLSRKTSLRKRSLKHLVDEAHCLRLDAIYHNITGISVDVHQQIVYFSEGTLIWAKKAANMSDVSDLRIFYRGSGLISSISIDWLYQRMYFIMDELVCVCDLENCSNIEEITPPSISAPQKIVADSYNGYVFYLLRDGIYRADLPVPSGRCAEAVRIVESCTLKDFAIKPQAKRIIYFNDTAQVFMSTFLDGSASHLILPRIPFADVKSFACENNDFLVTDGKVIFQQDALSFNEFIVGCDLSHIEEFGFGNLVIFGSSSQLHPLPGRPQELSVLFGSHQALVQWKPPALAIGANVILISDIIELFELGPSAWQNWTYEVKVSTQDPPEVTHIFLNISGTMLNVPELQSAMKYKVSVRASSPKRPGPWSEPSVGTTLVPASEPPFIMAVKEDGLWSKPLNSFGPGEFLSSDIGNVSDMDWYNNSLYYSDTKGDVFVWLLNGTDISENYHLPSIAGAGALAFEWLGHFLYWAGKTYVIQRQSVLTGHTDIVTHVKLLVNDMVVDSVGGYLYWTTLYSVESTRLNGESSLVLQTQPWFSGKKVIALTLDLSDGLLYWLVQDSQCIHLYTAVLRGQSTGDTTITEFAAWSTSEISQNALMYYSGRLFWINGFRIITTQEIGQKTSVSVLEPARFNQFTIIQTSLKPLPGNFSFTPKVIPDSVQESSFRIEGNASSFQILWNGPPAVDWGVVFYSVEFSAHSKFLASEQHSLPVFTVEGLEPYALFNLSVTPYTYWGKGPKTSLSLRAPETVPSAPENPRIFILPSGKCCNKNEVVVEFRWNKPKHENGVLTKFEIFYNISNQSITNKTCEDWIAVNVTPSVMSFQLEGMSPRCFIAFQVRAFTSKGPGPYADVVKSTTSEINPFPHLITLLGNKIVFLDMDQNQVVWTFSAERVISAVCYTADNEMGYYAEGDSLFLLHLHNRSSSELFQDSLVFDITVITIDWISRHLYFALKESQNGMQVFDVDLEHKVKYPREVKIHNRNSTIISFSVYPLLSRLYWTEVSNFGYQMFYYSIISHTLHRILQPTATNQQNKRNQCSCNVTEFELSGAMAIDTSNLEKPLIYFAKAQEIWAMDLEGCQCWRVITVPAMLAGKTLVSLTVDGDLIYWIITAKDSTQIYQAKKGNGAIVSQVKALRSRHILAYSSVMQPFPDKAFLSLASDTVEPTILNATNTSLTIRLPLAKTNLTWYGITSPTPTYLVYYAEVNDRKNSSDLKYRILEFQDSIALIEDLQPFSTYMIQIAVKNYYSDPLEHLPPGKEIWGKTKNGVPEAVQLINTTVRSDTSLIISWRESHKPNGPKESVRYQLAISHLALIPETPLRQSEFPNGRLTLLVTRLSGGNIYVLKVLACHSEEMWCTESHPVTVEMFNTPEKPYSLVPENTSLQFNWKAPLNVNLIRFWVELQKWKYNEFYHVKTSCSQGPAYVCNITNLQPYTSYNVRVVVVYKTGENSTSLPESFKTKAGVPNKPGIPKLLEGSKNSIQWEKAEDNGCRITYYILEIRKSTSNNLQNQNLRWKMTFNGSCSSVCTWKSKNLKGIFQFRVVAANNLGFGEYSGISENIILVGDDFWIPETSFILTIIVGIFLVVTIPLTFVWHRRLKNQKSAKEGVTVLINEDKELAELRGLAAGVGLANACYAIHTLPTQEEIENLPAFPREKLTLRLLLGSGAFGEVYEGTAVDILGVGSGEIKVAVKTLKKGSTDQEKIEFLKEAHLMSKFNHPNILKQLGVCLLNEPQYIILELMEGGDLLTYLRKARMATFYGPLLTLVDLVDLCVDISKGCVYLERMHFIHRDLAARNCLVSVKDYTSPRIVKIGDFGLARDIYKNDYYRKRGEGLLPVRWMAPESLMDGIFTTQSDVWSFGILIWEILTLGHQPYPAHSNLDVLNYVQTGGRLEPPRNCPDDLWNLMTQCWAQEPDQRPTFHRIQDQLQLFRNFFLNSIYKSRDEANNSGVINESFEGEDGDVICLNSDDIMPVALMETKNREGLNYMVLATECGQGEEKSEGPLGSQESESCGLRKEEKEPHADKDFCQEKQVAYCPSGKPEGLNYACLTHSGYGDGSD

IC50 (ROS1 [1]) [nM] | IC50 (ROS1 [2]) [nM] | IC50 ([3]; HCC78, 72 h) [nM] | IC50 ([3]; HCC78) [nM] | Compound
1 to 10 | < 20 | 100 to 600 |  | C[C@@H](Nc1ccc2ncc(-c3ccc(OCC4CNC4)cc3)n2n1)c1cccc(F)c1 [Example 27, 3-[4-(Azetidin-3-ylmethoxy)phenyl]-N-[(1R)-1-(3-fluorophenyl)ethyl]imidazo[1,2-b]pyridazin-6-amine]
1 to 10 | < 20 | 20 to 100 |  | CNCCCOc1cccc(-c2cnc3ccc(N[C@H](C)c4cccc(F)c4)nn23)c1 [Example 66, N-[(1R)-1-(3-Fluorophenyl)ethyl]-3-[3-[3-(methylamino)propoxy]phenyl]imidazo[1,2-b]pyridazin-6-amine]
< 1 | < 20 | < 20 |  | C[C@@H](Nc1ccc2ncc(-c3ccc(OCCN(C)C)cc3)n2n1)c1cccc(F)c1 [Example 69, 3-[4-(2-Dimethylaminoethoxy)phenyl]-N-[(1R)-1-(3-fluorophenyl)ethyl]imidazo[1,2-b]pyridazin-6-amine]
< 1 | < 20 | < 20 |  | CC(Oc1ccc2ncc(-c3ccc(N4C[C@@H](N)CC4=O)cc3)n2n1)c1cc(F)cnc1F (stereo partly shown) [Example 106]
1 to 10 | 20 to 100 | 20 to 100 |  | c1ccc(CNc2ccc3ncc(-c4ccc(OC[C@@H]5CCNC5)cc4)n3n2)cc1 [Example 5, N-Benzyl-3-[4-[[(3R)-pyrrolidin-3-yl]methoxy]phenyl]imidazo[1,2-b]pyridazin-6-amine]
1 to 10 | < 20 | 20 to 100 |  | NC1CC(=O)N(c2ccc(-c3cnc4ccc(OCc5cccc(F)c5)nn34)cc2)C1 (stereo not shown) [Example 73, 4-Amino-1-[4-[6-[(3-fluorophenyl)methoxy]imidazo[1,2-b]pyridazin-3-yl]phenyl]pyrrolidin-2-one]
1 to 10 | 20 to 100 | 20 to 100 |  | CN(Cc1cc(F)ccc1F)c1ccc2ncc(-c3ccc(N4C[C@@H](N)CC4=O)nc3)n2n1 [Example 129, (4S)-4-Amino-1-[5-[6-[(2,5-difluorophenyl)methyl-methylamino]imidazo[1,2-b]pyridazin-3-yl]-2-pyridyl]pyrrolidin-2-one]
1 to 10 | 100 to 150 | 100 to 600 |  | Fc1cccc(COc2ccc3ncc(-c4ccc(O[C@@H]5CCNC5)cc4)n3n2)c1 [Example 13, 6-[(3-Fluorophenyl)methoxy]-3-[4-[(3R)-pyrrolidin-3-yl]oxyphenyl]imidazo[1,2-b]pyridazine]
1 to 10 | < 20 | 20 to 100 |  | CN(Cc1cccc(F)c1F)c1ccc2ncc(-c3ccc(N4C[C@@H](N)CC4=O)cc3)n2n1 [Example 98, (4S)-4-Amino-1-[4-[6-[(2,3-difluorophenyl)methyl-methylamino]imidazo[1,2-b]pyridazin-3-yl]phenyl]pyrrolidin-2-one]
1 to 10 | < 20 | 20 to 100 |  | CNCCCOc1ccc(-c2cnc3ccc(N[C@H](C)c4cccc(F)c4)nn23)cc1 [Example 31]
1 to 10 | 20 to 100 | 20 to 100 |  | CN(Cc1cccc(C#N)c1)c1ccc2ncc(-c3ccc(N4C[C@@H](N)CC4=O)cc3)n2n1 [Example 121, 3-[[[3-[4-[(4S)-4-Amino-2-oxopyrrolidin-1-yl]phenyl]imidazo[1,2-b]pyridazin-6-yl]-methylamino]methyl]benzonitrile]
1 to 10 | 20 to 100 | 100 to 600 |  | Fc1cccc(COc2ccc3ncc(-c4ccc(OC[C@H]5CCCN5)cc4)n3n2)c1 [Example 11, 6-[(3-Fluorophenyl)methoxy]-3-[4-[[(2R)-pyrrolidin-2-yl]methoxy]phenyl]imidazo[1,2-b]pyridazine]
 |  |  | 100 to 600 | CN(Cc1cccc(Cl)c1)c1ccc2ncc(-c3ccc(N4CC(N)CC4=O)cc3)n2n1 (stereo not shown) [Example 96, 4-Amino-1-[4-[6-[(3-chlorophenyl)methyl-methylamino]imidazo[1,2-b]pyridazin-3-yl]phenyl]pyrrolidin-2-one]
< 1 | < 20 | < 20 |  | CC(Oc1ccc2ncc(-c3ccc(N4C[C@@H](N)CC4=O)cc3)n2n1)c1cncc(F)c1 (stereo partly shown) [Example 107]
< 1 | < 20 | 20 to 100 |  | C[C@@H](Nc1ccc2ncc(-c3ccc(OCCCN(C)C)cc3)n2n1)c1cccc(F)c1 [Example 70, 3-[4-[3-(Dimethylamino)propoxy]phenyl]-N-[(1R)-1-(3-fluorophenyl)ethyl]imidazo[1,2-b]pyridazin-6-amine]
1 to 10 | 20 to 100 | 20 to 100 |  | c1ccc(CNc2ccc3ncc(-c4ccc(OC[C@@H]5CCCN5)cc4)n3n2)cc1 [Example 1, N-Benzyl-3-[4-[[(2S)-pyrrolidin-2-yl]methoxy]phenyl]imidazo[1,2-b]pyridazin-6-amine]
< 1 | < 20 | < 20 |  | C[C@@H](Nc1ccc2ncc(-c3ccc(OC[C@@H]4CCN4)cc3F)n2n1)c1cccc(F)c1 [Example 43, 3-[4-[[(2S)-Azetidin-2-yl]methoxy]-2-fluoro-phenyl]-N-[(1R)-1-(3-fluorophenyl)ethyl]imidazo[1,2-b]pyridazin-6-amine]
< 1 | < 20 | 20 to 100 |  | CN(Cc1cccc(F)c1)c1ccc2ncc(-c3ccc(N4CC(N)CC4=O)cc3)n2n1 (stereo not shown) [Example 82, 4-Amino-1-[4-[6-[(3-fluorophenyl)methyl-methylamino]imidazo[1,2-b]pyridazin-3-yl]phenyl]pyrrolidin-2-one]
1 to 10 | 20 to 100 | 20 to 100 |  | CN(Cc1cccc(F)c1)c1ccc2ncc(-c3ccc(N4CC(C)(N)CC4=O)cc3)n2n1 (stereo not shown) [Example 84, 4-Amino-1-[4-[6-[(3-fluorophenyl)methyl-methylamino]imidazo[1,2-b]pyridazin-3-yl]phenyl]-4-methylpyrrolidin-2-one]
1 to 10 | 100 to 150 | 20 to 100 |  | OCCN1CCC[C@H]1COc1cccc(-c2cnc3ccc(NCc4ccccc4)nn23)c1 [Example 7, 2-[(2S)-2-[[3-[6-(Benzylamino)imidazo[1,2-b]pyridazin-3-yl]phenoxy]methyl]pyrrolidin-1-yl]ethanol]
< 1 |  | 20 to 100 |  | C[C@@H](Oc1ccc2ncc(-c3ccc(OC[C@@H]4CCCN4)cc3)n2n1)c1cccc(F)c1 [Example 16, 6-[(1R)-1-(3-Fluorophenyl)ethoxy]-3-[4-[[(2S)-pyrrolidin-2-yl]methoxy]phenyl]imidazo[1,2-b]pyridazine]
 |  | < 20 |  | CC(N)COc1ccc(-c2cnc3ccc(N[C@H](C)c4cccc(F)c4)nn23)cc1 (stereo partly drawn) [Example 35, 3-[4-(2-Aminopropoxy)phenyl]-N-[(1R)-1-(3-fluorophenyl)ethyl]imidazo[1,2-b]pyridazin-6-amine]
< 1 | < 20 |  |  | C[C@@H](Nc1ccc2ncc(-c3ccc(OC4CCCC4N)cc3)n2n1)c1cccc(F)c1 (single isomer, unassigned) [Example 32]
1 to 10 |  |  |  | CC(Oc1ccc2ncc(-c3ccc(N4C[C@@H](N)CC4=O)cc3)n2n1)c1cc(F)cnc1F (stereo partly drawn) [Example 134, (4S)-4-Amino-1-[4-[6-[(1-(2,5-difluoro-3-pyridyl)ethoxy]imidazo[1,2-b]pyridazin-3-yl]phenyl]pyrrolidin-2-one hydrochloride]
 | < 20 |  |  | CN(Cc1cccc(F)c1)c1ccc2ncc(-c3ccc(N4CC(C)(N)CC4=O)cc3)n2n1 (single isomer, unassigned) [Example 86, 4-Amino-1-[4-[6-[(3-fluorophenyl)methyl-methylamino]imidazo[1,2-b]pyridazin-3-yl]phenyl]-4-methylpyrrolidin-2-one]
 | 20 to 100 |  |  | CN(Cc1cncc(F)c1)c1ccc2ncc(-c3ccc(N4CC(C)(N)CC4=O)cc3)n2n1 (single isomer, unassigned) [Example 125, 4-Amino-1-[4-[6-[(5-fluoro-3-pyridyl)methyl-methylamino]imidazo[1,2-b]pyridazin-3-yl]phenyl]-4-methylpyrrolidin-2-one]
 | < 20 |  |  | C[C@@H](Oc1ccc2ncc(-c3ccc(N4C[C@@H](N)CC4=O)cc3)n2n1)c1cccc(F)c1 [Example 133, (4S)-4-Amino-1-[4-[6-[(1R)-1-(3-fluorophenyl)ethoxy]imidazo[1,2-b]pyridazin-3-yl]phenyl]pyrrolidin-2-one hydrochloride]
